These results are taken from patent US20020183518A1, “Modulators of proteins with phosphotyrosine recognition units” (ONTOGEN CORPORATION, priority 1995, published 2002).

As usually defined, the IC50 is the point on the concentration scale where inhibition reaches its midpoint.

This assay addresses T1, PTP-1B (Homo sapiens, UniProt P18031).
T1 construct: known to encode a 321 amino acid fragment containing the PTP-1B catalytic domain and having PTPase activity; made in house; host or cells: E. coli DH5α, plasmid pGEX-3X-PTP-1B
T1 sequence (P18031 3-277 limits assumed): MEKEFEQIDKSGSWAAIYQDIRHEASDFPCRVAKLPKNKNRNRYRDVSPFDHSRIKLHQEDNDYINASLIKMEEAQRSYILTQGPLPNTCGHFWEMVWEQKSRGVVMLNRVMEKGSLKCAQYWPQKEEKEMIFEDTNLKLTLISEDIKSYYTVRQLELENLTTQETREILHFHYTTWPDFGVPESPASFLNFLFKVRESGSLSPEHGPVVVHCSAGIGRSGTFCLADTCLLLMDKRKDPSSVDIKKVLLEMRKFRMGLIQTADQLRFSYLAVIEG
The assay can be described thus: In vitro PTPase inhibition assay (pNPP, colorimetric), PTP-1B. Type of assay: biochemical. As to conditions: Table 9; read-out: IC50 values against PTP1B. On the procedure:
PTP-1B enzymatic activity of samples was assayed in microtiter plates as follows. The protein concentration of the PTP-1B enzyme preparation was determined using the Bio-Rad Protein Assay kit (Bio-Rad, Hercules Calif.). […] Reactions were mixed gently and incubated at 37° C. for 60 minutes. Enzymatic cleavage of phosphate from pNPP (a tyrosine phosphate analog) is marked by a colorimetric change in this substrate. See, e.g., Imbert et al., Biochem J., 297:163-173 (1994); Ghosh and Miller, Biochem. Biophys. Res. […] Zanke et al., Eur. J. […] To determine the enzymatic activity, absorbance readings of the reactions were measured at 405 nm using a Molecular Devices Thermomax Plate Reader (Menlo Park Calif.). […] Purified phosphatase was added to the reaction mixtures to begin the reactions; the reactions were incubated at 37° C. for 60 min. […] (for PTP-1C and PTPα assays), stopped, and colorimetrically analyzed as described above. […] First, absorbance readings from the negative control reactions were treated as a baseline and subtracted from the absorbance readings of the experimental reactions. Then, for each reaction, a percent inhibition was calculated using the following formula: […] For each inhibitor compound tested, an IC50 concentration was calculated from a best-fit computer analysis of the calculated percent inhibition for the various dilutions of the compound. PTP-1B enzymatic activity of samples was assayed in microtiter plates as follows. The protein concentration of the PTP-1B enzyme preparation was determined using the Bio-Rad Protein Assay kit (Bio-Rad, Hercules Calif.). […] Reactions were mixed gently and incubated at 37° C. for 60 minutes. Enzymatic cleavage of phosphate from pNPP (a tyrosine phosphate analog) is marked by a colorimetric change in this substrate. See, e.g., Imbert et al., Biochem J., 297:163-173 (1994); Ghosh and Miller, Biochem. Biophys. Res. […] Zanke et al., Eur. […] To determine the enzymatic activity, absorbance readings of the reactions were measured at 405 nm using a Molecular Devices Thermomax Plate Reader (Menlo Park Calif.). […] Purified phosphatase was added to the reaction mixtures to begin the reactions; the reactions were incubated at 37° C. for 60 min. […] (for PTP-1C and PTPα assays), stopped, and calorimetrically analyzed as described above. […] First, absorbance readings from the negative control reactions were treated as a baseline and subtracted from the absorbance readings of the experimental reactions. Then, for each reaction, a percent inhibition was calculated using the following formula: […] For each inhibitor compound tested, an IC50 concentration was calculated from a best-fit computer analysis of the calculated percent inhibition for the various dilutions of the compound.
On to `CCCCCCCCNC(=O)/C=C/c1ccc(C(=O)C(=O)c2ccc(/C=C/C(=O)O)cc2)cc1` [Compound 13], for which the IC50 was found to be 31000 nM.

Take `O=C(O)/C=C/c1ccc(C(O)C(O)c2ccc(/C=C/C(=O)O)cc2)cc1` (stereo not shown) [Compound 23]: the IC50 is 270 nM.

In the case of `COc1ccc(C(=O)OC(c2ccc(/C=C/C(=O)O)cc2)C(O)c2ccc(/C=C/C(=O)O)cc2)cc1` (stereo not shown) [Compound 25], the IC50 turned out to be 890 nM.

For the compound `COc1ccc(C(=O)OC(C(=O)c2ccc(/C=C/C(=O)O)cc2)c2ccc(/C=C/C(=O)O)cc2)cc1` (stereo not shown) [Compound 27], the IC50 amounted to 500 nM.

For `COC(=O)CCCCC(=O)OC(c1ccc(/C=C/C(=O)O)cc1)C(O)c1ccc(/C=C/C(=O)O)cc1` (stereo not shown) [Compound 29], the IC50 was 800 nM.

As to `CCCCCCC(OC(=O)c1ccc(/C=C/C(=O)O)cc1)C(=O)NCC(=O)OCC` (stereo not shown) [Compound 32], the IC50 is 1800 nM.

For `CCCCNC(=O)C(OC(=O)c1ccc(/C=C/C(=O)O)cc1)C(=O)c1ccc(F)cc1` (stereo not shown) [Compound 144], the concentration for half-maximal inhibition (IC50) is 3000 nM.

For `CCCCNC(=O)c1oc(-c2ccc(/C=C/C(=O)O)cc2)nc1-c1ccc(F)cc1` [Compound 148], the IC50 was 9000 nM.

As for `COc1ccc(C(=O)OC(c2ccc(/C=C/C(=O)O)cc2)C(OC(=O)c2ccc(OC)cc2)c2ccc(/C=C/C(=O)O)cc2)cc1` (stereo not shown) [Compound 162], the IC50 was determined as 1800 nM.

On to `COc1ccc(-c2nc(-c3ccc(/C=C/C(=O)O)cc3)c(-c3ccc(/C=C/C(=O)O)cc3)s2)cc1` [Compound 168], for which the IC50 amounted to 3000 nM.
